Measured values taken from publication PMC7774306, “The Crystal Structures of Bacillithiol Disulfide Reductase Bdr (YpdA) Provide Structural and Functional Insight into a New Type of FAD-Containing NADPH-Dependent Oxidoreductase” (Biochemistry, 2020).

Columns and labels:
Sa YpdA (Bdr) [1] = molecular target: T1, Sa YpdA (Bdr) (Staphylococcus aureus, UniProt A0A0H2WWS2); test: NADPH consumption at […] nm; type: biochemical; settings: NADPH as co-substrate; anaerobic
T1 construct: gene SACOL1520; expressed and purified; FAD-containing; biological homotetramer; tag details only in supplement
T1 sequence (A0A0H2WWS2 1-328): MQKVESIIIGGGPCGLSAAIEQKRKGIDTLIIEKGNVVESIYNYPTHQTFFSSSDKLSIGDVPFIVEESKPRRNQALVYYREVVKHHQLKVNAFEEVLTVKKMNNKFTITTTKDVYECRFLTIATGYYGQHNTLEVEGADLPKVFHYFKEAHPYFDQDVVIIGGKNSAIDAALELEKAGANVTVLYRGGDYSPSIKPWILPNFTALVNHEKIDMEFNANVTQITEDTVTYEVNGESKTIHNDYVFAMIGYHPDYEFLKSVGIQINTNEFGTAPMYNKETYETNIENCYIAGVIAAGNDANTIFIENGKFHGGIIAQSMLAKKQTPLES

Bc YpdA (Bdr) = molecular target: T2, Bc YpdA (Bdr) (Bacillus cereus, UniProt Q81FS4); test: NADPH consumption at […] nm; type: biochemical; settings: anaerobic
T2 construct: gene BC_1495; expressed and purified; FAD-containing; biological homotetramer; tag details only in supplement
T2 sequence (Q81FS4 1-326): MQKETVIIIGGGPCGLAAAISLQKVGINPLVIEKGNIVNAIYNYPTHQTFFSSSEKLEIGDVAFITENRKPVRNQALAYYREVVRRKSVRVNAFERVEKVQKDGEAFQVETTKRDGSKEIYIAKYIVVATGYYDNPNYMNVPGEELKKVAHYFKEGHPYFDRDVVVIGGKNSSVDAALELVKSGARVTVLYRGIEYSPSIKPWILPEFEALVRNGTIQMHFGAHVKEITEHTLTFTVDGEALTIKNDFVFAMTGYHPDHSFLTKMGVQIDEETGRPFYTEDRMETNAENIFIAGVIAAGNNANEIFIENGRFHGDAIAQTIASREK

Sa YpdA (Bdr) [2] = molecular target: T1, Sa YpdA (Bdr); test: X-ray crystallography; type: binding

N[C@@H](CSSC[C@H](N)C(=O)N[C@H]1[C@@H](O[C@@H](CC(=O)O)C(=O)O)O[C@H](CO)[C@@H](O)[C@@H]1O)C(=O)N[C@H]1[C@@H](O[C@@H](CC(=O)O)C(=O)O)O[C@H](CO)[C@@H](O)[C@@H]1O [BSSB]
NADPH consumption at 340 nm (Sa YpdA (Bdr) [1]): YpdAs from Bc and Sa are both able to reduce BSSB | NADPH consumption at 340 nm (Bc YpdA (Bdr); NADPH as co-substrate): YpdAs from Bc and Sa are both able to reduce BSSB

Cc1cc2nc3c(=O)[nH]c(=O)nc-3n(C[C@H](O)[C@H](O)[C@H](O)COP(=O)(O)OP(=O)(O)OC[C@H]3O[C@@H](n4cnc5c(N)ncnc54)[C@H](O)[C@@H]3O)c2cc1C [FAD]
X-ray crystallography (Sa YpdA (Bdr) [2]; bound cofactor, 2.9 and 3.1 A resolution): Monomer structure alignment of Bc and Sa YpdA, displaying the NADPH and FAD binding domains

NC(=O)C1=CN([C@@H]2O[C@H](COP(=O)(O)OP(=O)(O)OC[C@H]3O[C@@H](n4cnc5c(N)ncnc54)[C@H](OP(=O)(O)O)[C@@H]3O)[C@@H](O)[C@H]2O)C=CC1 [NADPH]
NADPH consumption at 340 nm (Bc YpdA (Bdr); BSSB as co-substrate): both Sa and Bc YpdAs can reduce BSSB with a rate of consumption of NADPH | X-ray crystallography (Sa YpdA (Bdr) [2]; NADPH not added, co-purified, bound in chains C, D and F, FAD present): we observed in both Sa YpdA structures electron density for bound NADPH
